Assay results: patent publication US4826984A, “Heteroarotinoid compounds as anticancer agents” (The Board of Regents for the Oklahoma Agricultural and …, priority 1987, dated 1989)
Several values for one entry are separate records, joined by “and”; a condition that tells them apart may be missing. Equal entries are not always repeated.

How the values were obtained:
[1] = single large doses; cited from earlier work
[2] = tested on: tracheal organ cultures obtained from vitamin A deficient hamsters; experiment: tissue or blood; type: cell-based, hamster
Text: An evaluation of the anticancer properties of the heteroarotinoids was made via the standard hamster tracheal organ culture bioassay (see D. L. Newton, W. R. Henderson, and M. B. Sporn in Structure-Activity Relationships of Retinoids, National Cancer Institute, Revised Edition, Feb. 26, 1980; and D. L. Newton, W. R. Henderson, and M. B. Sporn, Cancer Research, 40, 3413 [1980]). The assay involves the ability of a test compound in vitro to reverse keratinization in tracheal organ cultures obtained from vitamin A deficient hamsters. The relationship of vitamin A deficient epithelial tissues and precancerous lesions is well known (see C. E. Orfanos, Retinoids-Advances in Basic Research and Therapy, Springer-Verlag, New York, 1981). For example, the addition of retinoids can reverse the anaplastic epithelial lesions induced in prostate glands by chemical carcinogens (see D. P. Chopra and L. J. Wilkoff, Proc. Am Assoc. Cancer Research, 16, 35 (1975); and I. Lasnitzki, British Journal of Cancer, 9, 434 [1955]). The basic procedure for the bioassay involving the vitamin A deficient hamster tracheal organ culture is presented below with the results obtained for some of the compositions.
The harvested tracheas were cultured in a serum-free medium and were gassed with 50% O2, 45% N2, and 5% CO2. The serum-free culture consists of CMRL Medium 1066 with crystalline bovine insulin (1.0 μg/mL), hydrocortisone hemisuccinate (0.1 μg/mL), glutamine (2 mM), pencillin (100 inits/mL), and streptomycin (100 μg/mL). The cultures were incubated for 3 days at 35°-36° C. After incubation in the retinoid-free medium, some of the tracheas were harvested. Most of the specimens had significant squamous metaplasia. The remaining cultures were divided into 3 groups. The first group was treated with the experimental heteroarotinoid in spectrograde dimethyl sulfoxide (DMSO) at concentrations of 10^-8 M, 10^-9 M, and 10^-10 M (final concentration of DMSO in culture medium was 0.1%). […] A final culture was prepared with only DMSO present.
The culture medium was changed three times per week for 10 days. At the end of that time, all tracheas were harvested and fixed in a 4% (or sometimes 10%) formaldehyde-1% glutaraldehyde solution. The material was then embedded in paraffin and cross-sections of the tracheas were examined under a microscope for the presence of keratin or keratohyaline granules. A synthetic retinoid was judged as having good anticancer activity if neither keratin nor keratohyaline granules were present or if only keratohyaline granules were […]. […] Sloughing of the cells in the culture studies was common with the toxic all trans-retinotic acid but was not observed with the heteroarotinoids in this work.
^a ED50 (M) is the dose for reversal of keratinization in
epithelium of 50% of retinoiddeficient hamster tracheas in organ culture.

[3] = tested on: ornithine decarboxylase (ODC); experiment: suppression of TPA induced ornithine decarboxylase (ODC) in mouse skin; type: in vivo
Experimental: In the ODC assay, either 13-cis-retinoic acid or trans-retinoic acid was employed. The following Table summarizes the result of the ODC assays.
In the screening tests of the Table, the selected retinoids in 0.2 ml of acetone were applied 1 hour before the application of 10 nmole of TPA to the shaved backs of mice; the mice where then sacrificed for ODC assay 5 hours after TPA treatment. Epidermus was separated, homogenized, and centrifuged at 30,000×g. Soluble epidermal ODC activity was assayed. The retinoids were evaluated in three independent experiments (3 groups of mice with 3 mice per group) and the results from the experiments were normalized (% inhibition) for comparison. […] Which standard is used appears to be relatively unimportant for determining activity in the assay, but the data presented in the Table identifies the standard for sake of clarity and accuracy of presentation. Thus, the presence of the heteroatom in these arotinoids has not eliminated biological activity. […] Consequently, the nature of the terminus group is also important.

[4] = tested on: tracheal organ cultures obtained from vitamin A deficient hamsters; details: value stated for the standard in the method; read-out: ED50 (the source's name); cited from earlier work
[5] = 34 nmol retinoid + TPA, third experiment (standard trans-retinoic acid)

In the case of CC1=C(/C=C/C(C)=C/C=C/C(C)=C/C(=O)O)C(C)(C)CCC1 [trans-retinoic acid, all trans-retinoic acid, reference compound], the acute toxicity [1] is listed as “acutely toxic in single large doses”, the “Sloughing of the cells in the culture studies” value [2] is listed as “common” and the “% Active” value ([2]; 10^-11 M) is listed as 50.0% and 41.7% and 53.8%. For the same molecule, the “% Active” value ([2]; 10^-12 M) was 16.7% and 33.3% and 23.1%, the “% Active” value ([2]; concentration printed 11^-11 M) was 50.0% and the “% Active” value ([2]; concentration printed 12^-12 M) was 23.1%. For the same molecule, the “% of Inhibition as Compared to Control” value [3, 5] was 81%, the “ODC Activity” value [3, 5] was 1.0 ± 0.1 nmol CO2 /60 min/mg protein and the “relative activities in suppressing TPA induction of ODC” value ([3]; trans-retinoic acid as a standard) was “trans-retinoic acid >24>35>36”. For the same molecule, the EC50 [4] was 0.01 nM.
